Assay results: patent US8865623B2, “Herbicidally active cyclic diones and derivatives thereof, processes for their preparation, compositions, and method of controlling weeds” (Syngenta Limited, priority 2009, dated 2014)

Assays:
Assay type in all cases: in vivo
[1] = tested on: Echinochloa crus-galli (ECHCG); assay: Pre-emergence herbicidal activity, glasshouse pot test; details: Echinochloa crus-galli, 312 h; Rate 250 g/ha; pre-emergence spray; evaluated after 13 days; read-out: Pre-emergence activity ECHCG (100=total damage to plant; 0=no damage to plant)
Summary of the method: (§1)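 Sow seeds in standard soil in pots; grow 1 day (pre-emergence) or 8 days (post-emergence) at 24/16° C, 14 h light, 65% humidity. Spray aqueous solution from acetone/water 50:50 + 0.5% Tween 20 formulation. Grow on, watering twice daily; score damage 0–100 after 13 days.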

[2] = tested on: Alopecurus myosuroides (ALOMY); assay: as above; details: Alopecurus myosuroides, 312 h; Rate 250 g/ha; pre-emergence spray; evaluated after 13 days; read-out: Pre-emergence activity ALOMY (100=total damage to plant; 0=no damage to plant)
Summary of the method: as §1

Avena fatua (AVEFA) [3] = assay: as above; details: Avena fatua, 312 h; Rate 250 g/ha; pre-emergence spray; evaluated after 13 days; read-out: Pre-emergence activity AVEFA (100=total damage to plant; 0=no damage to plant)
Summary of the method: as §1

Lolium perenne (LOLPE) [4] = assay: as above; details: Lolium perenne, 312 h; Rate 250 g/ha; pre-emergence spray; evaluated after 13 days; read-out: Pre-emergence activity LOLPE (100=total damage to plant; 0=no damage to plant)
Summary of the method: as §1

[5] = tested on: Echinochloa crus-galli (ECHCG); assay: Post-emergence herbicidal activity, glasshouse pot test; details: Echinochloa crus-galli, 312 h, rate 250 g/ha, evaluated after 13 days, glasshouse, read-out: Post-emergence activity ECHCG (100=total damage to plant; 0=no damage to plant)
Summary of the method: as §1

[6] = tested on: Alopecurus myosuroides (ALOMY); assay: as above; details: Alopecurus myosuroides, 312 h, rate 250 g/ha, evaluated after 13 days, glasshouse, read-out: Post-emergence activity ALOMY (100=total damage to plant; 0=no damage to plant)
Summary of the method: as §1

Avena fatua (AVEFA) [7] = assay: as above; details: Avena fatua, 312 h, rate 250 g/ha, evaluated after 13 days, glasshouse, read-out: Post-emergence activity AVEFA (100=total damage to plant; 0=no damage to plant)
Summary of the method: as §1

Lolium perenne (LOLPE) [8] = assay: as above; details: Lolium perenne, 312 h, rate 250 g/ha, evaluated after 13 days, glasshouse, read-out: Post-emergence activity LOLPE (100=total damage to plant; 0=no damage to plant)
Summary of the method: as §1

| SMILES | pest or weed control at 250 g/ha [1] | pest or weed control at 250 g/ha [2] | pest or weed control at 250 g/ha (Avena fatua (AVEFA) [3]) | pest or weed control at 250 g/ha (Lolium perenne (LOLPE) [4]) | pest or weed control at 250 g/ha [5] | pest or weed control at 250 g/ha [6] | pest or weed control at 250 g/ha (Avena fatua (AVEFA) [7]) | pest or weed control at 250 g/ha (Lolium perenne (LOLPE) [8]) |
| --- | --- | --- | --- | --- | --- | --- | --- | --- |
| CCc1ccc(Oc2ccc(C#N)cc2C(F)(F)F)cc1C1=C(O)CC2(CCOCC2)CC1=O [Example A-306] | 100% | 60% | 0% | 70% | 100% | 70% | 80% | 60% |
| CCc1ccc(Oc2ccc(C#N)cn2)cc1C1=C(O)C(C)(C)OC(C)(C)C1=O [Example A-150] | 80% | 10% | 10% | 70% | 100% | 60% | 70% | 40% |
| CCc1ccc(Oc2cc(C(F)(F)F)ccn2)cc1C1=C(O)C(C)(C)OC(C)(C)C1=O [Example A-153] | 100% | 50% | 20% | 60% | 90% | 70% | 80% | 30% |
| CCc1ccc(Oc2nc3ccc(OC)cc3s2)cc1C1=C(O)C(C)(C)OC(C)(C)C1=O [Example A-214] | 90% | 50% | 30% | 40% | 100% | 100% | 70% | 100% |
| CCc1ccc(Oc2nc3c(Cl)cc(Cl)cc3s2)cc1C1=C(O)[C@@H]2CC[C@](C)(C1=O)C2(C)C [Example A-328] | 100% | 50% | 30% | 90% | 100% | 60% | 80% | 70% |
| CCc1ccc(Oc2ncc(C)cn2)cc1C1=C(O)C(C)(C)OC(C)(C)C1=O [Example A-123] | 30% | 30% | 0% | 20% | 50% | 20% | 10% | 30% |
| CCc1ccc(Oc2c(F)ncc(Cl)c2F)cc1C1=C(O)C(C)(C)OC(C)(C)C1=O [Example A-192] | 20% | 0% | 0% | 0% | 40% | 0% | 10% | 10% |
| CCc1ccc(Oc2ccc(F)c(Cl)c2)cc1C1=C(O)C(C)(C)OC(C)(C)C1=O [Example A-24] | 90% | 30% | 40% | 90% | 100% | 70% | 70% | 70% |
| CCc1ccc(Oc2ccc(OC(F)(F)F)cc2)cc1C1=C(O)[C@H]2CC[C@H](C2)C1=O [Example A-248] | 100% | 90% | 80% | 100% | 100% | 100% | 100% | 100% |
